Measured values from patent US11202761B2, “Formulations for oral delivery of adsorbents in the gut” (Da Volterra, priority 2010, dated 2021).
Where two headings read alike, the source gives them in different places.

Experiments:
[1] = 10:1 ratio of activated charcoal/irinotecan, 200 μg/mL, simulated ileal medium pH 7.5
Description: Samples were centrifuged, filtered, and diluted ten-fold, prior to determination of the non-adsorbed concentration of irinotecan by measuring its absorbance at 368 nm using a spectrophotometer.

[2] = in vitro adsorption of various antibiotics onto activated charcoal; assay type: physicochemical; details: PBS pH 6, 37° C.
Experimental: (15 ml polypropylene tube, slow rotation 20 rpm), • sampling at 0.5 h, 1 h and 2 h, • Residual antibiotic dosage (i.e., not adsorbed) was determined by UV/visible spectrophotometric analysis.

[3] = In vitro adsorption kinetics of SN-38 onto activated charcoal; assay type: physicochemical; details: activated charcoal/SN-38 ratio of 10:1, 50 μg/mL in 0.01 M NaOH pH 12
Experimental: SN-38 was dissolved at a concentration of 50 μg/mL in 0.01 M NaOH pH 12. Non adsorbed SN-38 was detected after centrifugation and filtration by at its absorbance at 411 nm using a spectrophotometer.

topoisomerase I = target: T1, topoisomerase I (Homo sapiens, UniProt P11387); details: in vitro; cited from earlier work
T1 sequence (P11387 1-765): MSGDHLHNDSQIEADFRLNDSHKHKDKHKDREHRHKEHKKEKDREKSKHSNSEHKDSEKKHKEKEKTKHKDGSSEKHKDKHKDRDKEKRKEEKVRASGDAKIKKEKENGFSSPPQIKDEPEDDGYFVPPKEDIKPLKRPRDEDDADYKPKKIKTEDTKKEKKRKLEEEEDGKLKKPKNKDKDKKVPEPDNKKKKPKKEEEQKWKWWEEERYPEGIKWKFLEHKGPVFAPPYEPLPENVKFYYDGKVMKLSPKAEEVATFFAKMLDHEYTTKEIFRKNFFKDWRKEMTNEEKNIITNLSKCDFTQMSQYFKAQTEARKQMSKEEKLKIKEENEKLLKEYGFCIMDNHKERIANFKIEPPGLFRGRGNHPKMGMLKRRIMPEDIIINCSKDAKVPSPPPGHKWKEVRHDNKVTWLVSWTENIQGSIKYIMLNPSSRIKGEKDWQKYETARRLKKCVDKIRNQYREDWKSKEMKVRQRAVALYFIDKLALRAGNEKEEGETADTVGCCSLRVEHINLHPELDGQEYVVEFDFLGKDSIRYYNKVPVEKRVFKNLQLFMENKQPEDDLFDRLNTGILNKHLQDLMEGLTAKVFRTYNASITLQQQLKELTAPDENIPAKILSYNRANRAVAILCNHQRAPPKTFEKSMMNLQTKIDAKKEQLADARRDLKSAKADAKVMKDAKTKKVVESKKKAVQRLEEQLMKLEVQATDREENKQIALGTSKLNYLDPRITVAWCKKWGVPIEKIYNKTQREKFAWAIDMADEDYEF

[4] = Kinetics of ciprofloxacin adsorption by activated charcoal measured by microbiological assay; details: ciprofloxacin 50 μg/ml, 150 μg/ml activated charcoal, pH 6.0
Experimental: The microbiological assay consists in measuring the biological activity of an antibiotic, i.e. its capacity to inhibit the growth of an indicator bacterial strain. […] 20 μl samples containing the antibiotic to be measured were spotted onto paper discs applied directly onto the surface of the agar plates. After 18 h incubation at 37° C., the diameters of the zones around the paper discs where bacterial growth had been inhibited by the presence of the antibiotic were measured.

[5] = start 3/1, extra charcoal: 6/1 after 1 h and 9/1 after 2 h
[6] = start 10/1, extra charcoal: 20/1 after 1 h and 30/1 after 2 h

Row | SMILES | Residual antibiotic after 2 h (*) [2, 5] | Residual antibiotic after 2 h (*) [2, 6] | further results
1 | CCc1c2c(nc3ccc(OC(=O)N4CCC(N5CCCCC5)CC4)cc13)-c1cc3c(c(=O)n1C2)COC(=O)[C@]3(O)CC [irinotecan, Irinotecan] |  |  | time to complete adsorption [1]: about 15 minutes
2 | O=C(O)[C@H]1/C(=C/CO)O[C@@H]2CC(=O)N21 [Clavulanate] | 22% | 3.5% | 
3 | CC[C@H]1OC(=O)C[C@@H](O)[C@H](C)[C@@H](O[C@@H]2O[C@H](C)[C@@H](O[C@H]3C[C@@](C)(O)[C@@H](O)[C@H](C)O3)[C@H](N(C)C)[C@H]2O)[C@@H](CC=O)C[C@@H](C)C(=O)/C=C/C(C)=C/[C@@H]1CO[C@@H]1O[C@H](C)[C@@H](O)[C@@H](OC)[C@H]1OC [Tylosine] | <3% | <3% | 
4 | CCc1c2c(nc3ccc(O)cc13)-c1cc3c(c(=O)n1C2)COC(=O)[C@]3(O)CC [SN-38, 7-ethyl-10-hydroxycamptothecin] |  |  | time to complete adsorption [3]: ~30 min; antineoplastic activity relative to the prodrug form (Irinotecan) (topoisomerase I): 1000 fold
5 | CN[C@H](CC(C)C)C(=O)N[C@H]1C(=O)N[C@@H](CC(N)=O)C(=O)N[C@H]2C(=O)N[C@H]3C(=O)N[C@H](C(=O)N[C@H](C(=O)O)c4cc(O)cc(O)c4-c4cc3ccc4O)[C@H](O)c3ccc(c(Cl)c3)Oc3cc2cc(c3O[C@@H]2O[C@H](CO)[C@@H](O)[C@H](O)[C@H]2O[C@H]2C[C@](C)(N)[C@H](O)[C@H](C)O2)Oc2ccc(cc2Cl)[C@H]1O [Vancomycin] | 27% | <1.25% | 
6 | CN(C)c1cc(NC(=O)CNC(C)(C)C)c(O)c2c1C[C@H]1C[C@H]3[C@H](N(C)C)C(O)=C(C(N)=O)C(=O)[C@@]3(O)C(O)=C1C2=O [Tigecycline] | 21% |  | 
7 | C[C@]1(Cn2ccnn2)[C@H](C(=O)O)N2C(=O)C[C@H]2S1(=O)=O [Tazobactam] | <20% |  | 
8 | O=C(O)c1cn(C2CC2)c2cc(N3CCNCC3)c(F)cc2c1=O [Ciprofloxacine] |  |  | antibiotic adsorbed by the charcoal ([4]; time zero sample = approximately one minute of contact): ~70%; antibiotic adsorbed onto the charcoal ([4]; within one hour): Almost all of the antibiotic was adsorbed
